Test results taken from the supplement of paper PMC6045584.
± gives the standard deviation of the averaged measurements.

How the values were obtained:
[1] = compound: Cc1cn(-c2cc(NC(=O)c3ccc(C)c(Nc4nccc(-c5cccnc5)n4)c3)cc(C(F)(F)F)c2)cn1 [NILOTINIB]; assay: surviving fraction relative to DMSO-only wells; higher = less growth inhibition; conditions: exposure time: 5 days
Summary of the method: (§1)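 Surviving fraction is CellTiter-Glo luminescence divided by the median of wells given DMSO only. For this, log-phase tumour cell lines went into 384-well plates at 250–500 cells per well and, 24 hours later, into five days of continuous inhibitor exposure at 0.5, 1, 5, 10, 50, 100, 500 and 1000 nM. Lines were screened three times and retained only if replicate Pearson r >0.7 and median Z' >0.3.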

[2] = compound: O=C(CCCCCCC(=O)Nc1ccccc1)NO [VORINOSTAT]; assay: as above; conditions: exposure time: 5 days
Summary of the method: as §1

Test System | surviving fraction ([1]; 0.5 nM) | surviving fraction ([1]; 1 nM) | surviving fraction ([1]; 5 nM) | surviving fraction ([1]; 10 nM) | surviving fraction ([1]; 50 nM) | surviving fraction ([1]; 100 nM) | surviving fraction ([1]; 500 nM) | surviving fraction ([1]; 1000 nM) | surviving fraction ([2]; 0.5 nM) | surviving fraction ([2]; 1 nM) | surviving fraction ([2]; 5 nM) | surviving fraction ([2]; 10 nM) | surviving fraction ([2]; 50 nM) | surviving fraction ([2]; 100 nM) | surviving fraction ([2]; 500 nM) | surviving fraction ([2]; 1000 nM)
HUO3N1 BONE | 0.993 ± 0.012 | 0.986 ± 0.048 | 1.12 ± 0.047 | 1.08 ± 0.038 | 0.985 ± 0.051 | 1 ± 0.041 | 1.005 ± 0.0097 | 0.936 ± 0.054 | 1.03 ± 0.016 | 0.975 ± 0.051 | 0.988 ± 0.027 | 0.964 ± 0.032 | 1.012 ± 0.0098 | 1.06 ± 0.081 | 0.987 ± 0.032 | 0.559 ± 0.011
JIMT1 BREAST | 0.946 ± 0.041 | 0.955 ± 0.045 | 0.975 ± 0.039 | 0.964 ± 0.07 | 0.931 ± 0.054 | 0.958 ± 0.086 | 0.97 ± 0.045 | 0.924 ± 0.054 | 0.924 ± 0.0097 | 0.995 ± 0.017 | 1.01 ± 0.037 | 0.986 ± 0.013 | 1.07 ± 0.027 | 1.006 ± 0.01 | 0.686 ± 0.01 | 0.448 ± 0.037
JURKAT HAEMATOPOIETIC AND LYMPHOID TISSUE | 1.1 ± 0.025 | 1.1 ± 0.027 | 1.07 ± 0.029 | 1.06 ± 0.021 | 1.042 ± 0.009 | 1.02 ± 0.044 | 1.04 ± 0.026 | 0.91 ± 0.057 | 1.1 ± 0.026 | 1.105 ± 0.01 | 1.09 ± 0.032 | 1.05 ± 0.02 | 1.04 ± 0.013 | 1.01 ± 0.023 | 0.696 ± 0.037 | 0.039 ± 0.001
KPD BONE | 1.04 ± 0.097 | 0.981 ± 0.038 | 1.06 ± 0.032 | 1.02 ± 0.026 | 1.03 ± 0.03 | 1.11 ± 0.055 | 0.925 ± 0.033 | 0.841 ± 0.028 | 0.943 ± 0.058 | 0.981 ± 0.032 | 1.09 ± 0.068 | 1.02 ± 0.067 | 1.07 ± 0.074 | 0.994 ± 0.083 | 0.907 ± 0.048 | 0.65 ± 0.021
LM7 BONE | 1.02 ± 0.027 | 0.9597 ± 0.0087 | 1.07 ± 0.03 | 1.01 ± 0.043 | 0.898 ± 0.084 | 0.957 ± 0.076 | 0.79 ± 0.02 | 0.76 ± 0.07 | 1.01 ± 0.1 | 0.999 ± 0.041 | 1.09 ± 0.059 | 1.03 ± 0.08 | 1.11 ± 0.12 | 1.1 ± 0.04 | 0.934 ± 0.12 | 0.8 ± 0.032
LNCAP PROSTATE | 1.12 ± 0.083 | 1.13 ± 0.12 | 1.08 ± 0.011 | 1.01 ± 0.072 | 1.14 ± 0.076 | 1.1 ± 0.15 | 1.16 ± 0.031 | 1.03 ± 0.066 | 1.11 ± 0.14 | 0.952 ± 0.22 | 0.842 ± 0.19 | 0.861 ± 0.053 | 0.904 ± 0.15 | 0.784 ± 0.042 | 0.361 ± 0.055 | 0.159 ± 0.016
MCF7 BREAST | 0.969 ± 0.072 | 0.912 ± 0.05 | 0.948 ± 0.023 | 0.943 ± 0.017 | 0.992 ± 0.064 | 0.995 ± 0.073 | 0.942 ± 0.068 | 0.97 ± 0.078 | 0.854 ± 0.026 | 0.839 ± 0.033 | 0.864 ± 0.011 | 0.781 ± 0.026 | 0.977 ± 0.034 | 0.845 ± 0.028 | 0.742 ± 0.0093 | 0.648 ± 0.0092
MDAMB134 BREAST | 0.803 ± 0.068 | 1.15 ± 0.12 | 0.865 ± 0.013 | 0.808 ± 0.15 | 0.74 ± 0.12 | 0.72 ± 0.099 | 0.672 ± 0.034 | 0.716 ± 0.13 | 0.938 ± 0.037 | 0.937 ± 0.17 | 0.987 ± 0.0099 | 0.857 ± 0.011 | 0.935 ± 0.026 | 0.949 ± 0.16 | 0.688 ± 0.04 | 0.781 ± 0.025
MDAMB157 BREAST | 1.11 ± 0.045 | 0.957 ± 0.047 | 1.09 ± 0.083 | 1.11 ± 0.041 | 1.1 ± 0.066 | 1.07 ± 0.018 | 0.932 ± 0.17 | 0.928 ± 0.063 | 0.889 ± 0.089 | 0.896 ± 0.034 | 0.939 ± 0.04 | 0.973 ± 0.069 | 1.01 ± 0.065 | 0.951 ± 0.068 | 0.825 ± 0.024 | 0.321 ± 0.04
MDAMB231 BREAST | 0.935 ± 0.052 | 0.919 ± 0.025 | 0.866 ± 0.036 | 0.839 ± 0.038 | 0.763 ± 0.043 | 0.857 ± 0.017 | 0.923 ± 0.036 | 0.866 ± 0.039 | 0.995 ± 0.015 | 1 ± 0.017 | 0.993 ± 0.03 | 0.983 ± 0.025 | 1.01 ± 0.028 | 0.971 ± 0.042 | 0.805 ± 0.02 | 0.358 ± 0.0067
MDAMB361 BREAST | 0.632 ± 0.033 | 0.953 ± 0.057 | 0.69 ± 0.11 | 0.743 ± 0.06 | 0.533 ± 0.078 | 0.601 ± 0.059 | 0.619 ± 0.02 | 0.539 ± 0.1 | 0.809 ± 0.028 | 0.871 ± 0.097 | 0.796 ± 0.019 | 0.825 ± 0.037 | 0.783 ± 0.096 | 0.843 ± 0.077 | 0.596 ± 0.014 | 0.378 ± 0.015
